Columns and labels:
[1] = test system: pRET and pERK; assay: Western blot for pRET and pERK after 24 hours; type: cell-based, human; settings: TPC1
Procedure: (§1) FIG. 14A-FIG. 14C: TPC1 (a papillary thyroid cancer cell line) treated with AST487 increased HLA surface expression. FIG. 14A and FIG. 14B: TPC1 cells were seeded and treated with different doses of AST487 (a RET inhibitor). After 72 hours, cells were harvested and surface HLA-A02 and HLA-ABC were measured through flow cytometry with BB7 and W6/32 staining antibodies, respectively. FIG. 14C: After 24 hours of AST487 incubation, cells were lysed and a western blot was performed to show a decrease in pRET and pERK with AST487 treatment.
(§2) The effect of AST487, a RET inhibitor, on TPC1 (a papillary thyroid cancer cell line) was investigated. TPC1 cells were seeded and treated with different doses of AST487. After 72 hours, cells were harvested and surface HLA-A02 and HLA-ABC were measured through flow cytometry with BB7 and W6/32 staining antibodies, respectively (FIG. 14A-FIG. 14B).

[2] = test system: TPC1 cells; assay: In vivo treatment of subcutaneous TPC1 tumors, flow cytometry of tumor cells; design: species or system NRG mice; settings: 7 days of treatment
Procedure: FIG. 19A-FIG. 19B: AST487 treatment in vivo increased surface HLA expression levels. FIG. 19A: NRG mice were injected with TPC1 cells and treated with vehicle (control) or AST487. BB7 and W6/32 binding on TPC1 cells were measured, and are shown in FIG. 19A (normalized to vehicle-treated mice) for vehicle-treated, 10 mg/kg AST487-treated, and 35 mg/kg AST487-treated mice. […] PD-L1 levels were measured as binding to anti-PD-L1 antibody.
NRG mice (Jackson labs NOD-Rag 1 null IL2rgnull, NOD rag gamma) were injected with TPC1 cells subcutaneously, and then treated 4 weeks later with vehicle (phosphate buffered saline) or with AST487 (a RET inhibitor) at a dose of 10 mg/kg or 35 mg/kg. After 7 days of treatment, tumors were harvested, and tumor cells were assessed for binding to BB7 (a monoclonal antibody specific to HLA-A02) and binding to W6/32 (a monoclonal antibody specific to pan HLA-ABC). Tumor cells were GFP-labeled and were distinguished from stroma and normal cells by gating for GFP in flow cytometry. […] One mouse in the vehicle control group was excluded as an outlier with 99% confidence interval as determined by Q test. PD-L1 expression by the tumor was also assessed by measuring binding of anti-PD-L1 antibody.

[3] = test system: TPC1; assay: Binding of TCR mimic antibody ESK and ADCC (chromium release) with ESK-M; type: cell-based, human
Procedure: FIG. 18A-FIG. 18B: AST487 increased cytolytic activity of TCRm antibody. FIG. 18A: TPC1 cells were treated with different doses of AST487 and binding of ESK (a TCR mimic monoclonal antibody specific for the WT1 RMF peptide/HLA-A02:01 complex) was measured. FIG. 18B: With increase of ESK binding in vitro, the effect on cytolytic activity of ESK was measured with an ADCC assay. TPC1 cells were treated with AST487 or DMSO for 72 hours and then incubated with chromium. Peripheral blood mononuclear cells (PBMCs), chromium labeled target cells, and ESK-M (or an isotype) were mixed and incubated for 5 hours. Varying effector to target ratios were used. Afterwards, chromium levels in the media were measured to determine percent specific lysis.
For FIG. 18A, TPC1 cells were treated with different doses of AST487 and binding of ESK (a TCR mimic monoclonal antibody specific for the WT1 RMF peptide/HLA-A02:01 complex) was measured. For FIG. 18B, with increase of ESK binding in vitro, the effect on cytolytic activity of ESK was measured with an antibody-dependent cell-mediated cytotoxicity (ADCC) assay. TPC1 cells were treated with AST487 or DMSO for 72 hours and then incubated with chromium. PBMCs, chromium labeled target cells, and ESK-M (or an isotype) were mixed and incubated for 5 hours. […] Afterwards, chromium levels in the media were measured to determine percent specific lysis.

[4] = test system: TPC1; assay: qPCR of transcript levels of HLA and antigen processing machinery; type: cell-based, human; settings: 24 or 48 hours
Procedure: Using qPCR, transcript levels of HLA and antigen processing machinery were measured after TPC1 cells were treated with AST487 for 24 (FIG. 17A) or 48 hours (FIG. 17B). Upregulation of mRNA levels for HLA and antigen processing machinery were seen.
Real-Time PCR: Total RNA was extracted using Qiagen RNA Easy Plus (Qiagen; #74134) after cells were treated for 48 hrs with indicated inhibitor. RNA was converted into cDNA using gScript™ cDNA SuperMix (Quanta Biosciences Gaithersburg, Md. USA). Real-time assays were conducted using TaqMan real-time probes. (Life Technlogies) for human HLA-A (Hs01058806_gl), B2M (Hs00187842_ml), TAP1 (Hs00388677_ml), TAP2 (Hs00241060_ml), and TBP (Hs00427620_ml) using 50 ng cDNA. For assessment of gene expression using RT-PCR PerfeCTa® FastMix® II (Quanta), reactions were carried out in triplicates using standard thermocycling conditions (2 minutes at 50° C., 10 minutes at 95° C., 40 cycles of 15 seconds at 95° C., and 1 minute at 60° C.). TBP was used as internal control and ΔΔCT method was used for relative mRNA calculations.
Next, using qPCR, transcript levels of HLA and antigen processing machinery were measured after TPC1 cells were treated with AST487 for 24 (FIG. 17, left panel) or 48 hours (FIG. 17, right panel). Upregulation of mRNA levels for HLA and antigen processing machinery were seen.

[5] = test system: TPC1; assay: Surface HLA-A02 and HLA-ABC by flow cytometry (BB7, W6/32) after 72 hours; type: cell-based, human; settings: different doses
Procedure: as §1, §2

[6] = test system: TT cells; assay: as above; type: cell-based, human; settings: different doses
Procedure: FIG. 15A and FIG. 15B: TT cells were seeded and treated with different doses of AST487 (a RET inhibitor). After 72 hours, cells were harvested and surface HLA-A02 and HLA-ABC were measured through flow cytometry with BB7 and W6/32 staining antibodies, respectively. FIG. 15C: After 24 hours of AST487 incubation, cells were lysed and a western blot was performed. TT cells are derived from a medullary thyroid cancer that has a RET point mutation, as opposed to the TPC1 cells, which are derived from a papillary thyroid cancer and have a RET/PTC1 fusion.
The same analysis was performed in TT cells (a medullary thyroid cancer cell line). TT cells are derived from a medullary thyroid cancer that has a RET point mutation, as opposed to TPC1 cells, which are derived from a papillary thyroid cancer and have a RET/PTC1 fusion. TT cells were seeded and treated with different doses of AST487. After 72 hours, cells were harvested and surface HLA-A02 and HLA-ABC were measured through flow cytometry with BB7 and W6/32 staining antibodies, respectively (FIG. 15A-FIG. 15B). After 24 hours of AST487 incubation, cells were lysed and a western blot was performed (FIG. 15C).

Structure (SMILES): CCN1CCN(Cc2ccc(NC(=O)Nc3ccc(Oc4cc(NC)ncn4)cc3)cc2C(F)(F)F)CC1 [AST487, 1-[4-[(4-ethylpiperazin-1-yl)methyl]-3-(trifluoromethyl)phenyl]-3-[4-[6-(methylamino)pyrimidin-4-yl]oxyphenyl]urea]
- pRET and pERK [1]: decrease
- HLA-A02 expression (BB7 binding) on the surface of the tumor cells ([2]; 10 mg/kg or 35 mg/kg): increased
- pan HLA-ABC expression (W6/32 binding) on the surface of the tumor cells ([2]; 10 mg/kg or 35 mg/kg): increased
- expression of PD-L1 by the tumor ([2]; anti-PD-L1 antibody binding): did not change
- cytolytic activity of TCRm antibody (ADCC, ESK-M) ([3]; 72 hours AST487, then PBMCs and ESK-M 5 hours): increased
- ESK binding ([3]; different doses): increase
- mRNA levels for HLA and antigen processing machinery [4]: Upregulation
- HLA class I surface expression [5]: increased
- surface HLA-A [6]: upregulated

From patent US20190077856A1, “METHOD OF TREATING DISEASES USING KINASE MODULATORS” (Memorial Sloan Kettering Cancer Center, priority 2016, published 2019)
